Columns and labels:
rNTS2 receptor = molecular target: T1, rNTS2 receptor (Rattus norvegicus, UniProt Q63384); assay: Competitive radioligand binding assay on the rNTS2 receptor; conditions: 1 μM macrocycle dose; read-out: NTS2 % displ at 1 μM (radiolabeled neurotensin displaced)
T1 construct: expressed in transfected cells; host or cells: DRG-F11 cells, transient transfection, membranes
T1 sequence (Q63384 1-416): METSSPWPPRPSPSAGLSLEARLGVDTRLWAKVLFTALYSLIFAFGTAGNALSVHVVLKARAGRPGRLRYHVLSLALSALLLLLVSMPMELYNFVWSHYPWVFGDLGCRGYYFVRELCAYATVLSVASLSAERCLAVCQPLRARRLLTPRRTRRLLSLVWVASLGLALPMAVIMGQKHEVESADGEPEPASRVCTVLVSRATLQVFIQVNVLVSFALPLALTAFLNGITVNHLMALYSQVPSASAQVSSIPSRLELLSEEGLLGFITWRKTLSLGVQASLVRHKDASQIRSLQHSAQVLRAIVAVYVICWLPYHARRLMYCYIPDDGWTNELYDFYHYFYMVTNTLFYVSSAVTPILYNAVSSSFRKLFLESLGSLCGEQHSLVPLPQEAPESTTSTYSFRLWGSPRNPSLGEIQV
Method: DRG-F11 cells were cultured in DMEM supplemented with 10% FBS, 100 U/mL penicillin, 100 μg/mL streptomycin, and 20 mM HEPES.
Membranes were prepared by scraping cells off the culture dish with 50 mM Tris ph 7.5 and centrifuged at 15,000 g for 5 min at 4° C. The pellet was resuspended in 10 mM Tris, 1 mM EDTA pH 7.5 and sonicated for 30 s prior to be centrifugated at 15,000 g for 30 min at 4° C. The pellet was then re-suspended in binding 9 buffer. […] All other steps in binding experiments were unchanged comparing to the one using the NTS1 receptor.

hNTS1 (Gαq pathway) = molecular target: T2, hNTS1 (Gαq pathway) (Homo sapiens, UniProt P30989); assay: BRET biosensor assay, Gαq dissociation; format: cell-based
T2 construct: expressed in transfected cells; host or cells: CHO-K1, transient transfection with PEI
T2 sequence (P30989 whole entry): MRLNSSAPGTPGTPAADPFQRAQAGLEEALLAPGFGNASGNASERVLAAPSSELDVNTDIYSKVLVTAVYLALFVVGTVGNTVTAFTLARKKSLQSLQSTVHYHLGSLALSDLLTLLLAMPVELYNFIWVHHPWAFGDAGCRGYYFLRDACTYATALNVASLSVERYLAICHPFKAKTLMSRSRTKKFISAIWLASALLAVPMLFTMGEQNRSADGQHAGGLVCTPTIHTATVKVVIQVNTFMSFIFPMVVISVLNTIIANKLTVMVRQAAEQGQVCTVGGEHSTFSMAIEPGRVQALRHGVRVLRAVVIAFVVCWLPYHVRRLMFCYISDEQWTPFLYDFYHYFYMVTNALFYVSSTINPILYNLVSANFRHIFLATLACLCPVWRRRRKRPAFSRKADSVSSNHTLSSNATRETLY
Method: CHO-K1 cells were cultured in DMEM-F12 supplemented with 10% FBS, 100 U/mL penicillin, 100 μg/mL streptomycin, and 20 mM HEPES at 37° C. in a humidified chamber at 5% CO2. Cells were seeded into T75 flasks at a density of 20 000 cells/cm^2; 24 h later, cells were transfected with plasmids coding for hNTS1-Green fluorescent protein 10(GFP10)/Rluc (Renilla Luciferase)II-β-arrestin 1 or hNTS1-GFP10/RlucII-β-arrestin2, or with hNTS1/Gαq-RlucII/Gβ1/IGFP10-Gγ1 or hNTS1/Gα13-RlucII/Gβ1/GFP10-Gγ1 using polyethylenimine (PEI). Cells were transferred into 96-well plates at a concentration of 50 000 cells/well 24 h after transfection and incubated at 37° C. overnight. […] After stimulation, coelenterazine 400A was added in each well to a final concentration of 5 μM and the plate was read using filter selected for BRET2 measurement (BRET2 High efficiency filter set, λemRlucII: 410±80 nm, λemGFP10: 515±40 nm) on a Mithras 2 plate reader (Berthold Technologies, Tennessee, USA). BRET2 ratio was determined as GFP10em/RlucIIem. […] EC50 (Effective Concentration 50) values were determined using the dose response-stimulation log(agonist) vs response (three parameters) and represent the mean±SEM of at least three separate experiments, each performed in triplicate.
NTS1 is capable of activating several signaling pathways, thus the activation of Gαq, Gα13, β-arrestin 1 and β-arrestin 2 pathways was monitored. […]

[1] = molecular target: T3, hNTS1 (β-arrestin 2 recruitment) (Homo sapiens, UniProt P30989); assay: BRET biosensor assay, β-arrestin 2 recruitment; format: cell-based
T3 construct: expressed in transfected cells; host or cells: CHO-K1, transient transfection with PEI
T3 sequence (P30989 whole entry): as above
T3 sequence (P32121 whole entry partner): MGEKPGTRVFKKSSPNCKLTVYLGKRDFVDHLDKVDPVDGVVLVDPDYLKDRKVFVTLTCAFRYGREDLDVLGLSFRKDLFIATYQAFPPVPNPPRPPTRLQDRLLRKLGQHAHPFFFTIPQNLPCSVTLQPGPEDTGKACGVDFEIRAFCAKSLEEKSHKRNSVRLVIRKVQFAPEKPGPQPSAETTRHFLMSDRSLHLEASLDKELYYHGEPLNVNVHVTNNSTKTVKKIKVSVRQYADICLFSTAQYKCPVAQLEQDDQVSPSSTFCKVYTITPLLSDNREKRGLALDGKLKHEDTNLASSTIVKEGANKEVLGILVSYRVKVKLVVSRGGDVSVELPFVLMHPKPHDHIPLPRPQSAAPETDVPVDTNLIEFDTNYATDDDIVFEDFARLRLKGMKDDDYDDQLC
Method: CHO-K1 cells were cultured in DMEM-F12 supplemented with 10% FBS, 100 U/mL penicillin, 100 μg/mL streptomycin, and 20 mM HEPES at 37° C. in a humidified chamber at 5% CO2. Cells were seeded into T75 flasks at a density of 20 000 cells/cm^2; 24 h later, cells were transfected with plasmids coding for hNTS1-Green fluorescent protein 10(GFP10)/Rluc (Renilla Luciferase)II-β-arrestin 1 or hNTS1-GFP10/RlucII-β-arrestin2, or with hNTS1/Gαq-RlucII/Gβ1/IGFP10-Gγ1 or hNTS1/Gα13-RlucII/Gβ1/GFP10-Gγ1 using polyethylenimine (PEI). Cells were transferred into 96-well plates at a concentration of 50 000 cells/well 24 h after transfection and incubated at 37° C. overnight. They were then washed with PBS and 90 μL HBSS was added in each well. […] After stimulation, coelenterazine 400A was added in each well to a final concentration of 5 μM and the plate was read using filter selected for BRET2 measurement (BRET2 High efficiency filter set, λemRlucII: 410±80 nm, λemGFP10: 515±40 nm) on a Mithras 2 plate reader (Berthold Technologies, Tennessee, USA). BRET2 ratio was determined as GFP10em/RlucIIem. […] EC50 (Effective Concentration 50) values were determined using the dose response-stimulation log(agonist) vs response (three parameters) and represent the mean±SEM of at least three separate experiments, each performed in triplicate.
NTS1 is capable of activating several signaling pathways, thus the activation of Gαq, Gα13, β-arrestin 1 and β-arrestin 2 pathways was monitored. The ability of compounds of the invention to activate the NTS1 receptor was assessed using Bioluminescence Resonance Energy Transfer (BRET)-based biosensors, reporting the dissociation of G proteins (Table III, column EC50 Gq) and the recruitment of β-arrestins to the receptor (Table III, column EC50 βarr).

Plasma stability assay = format: in vitro ADME; conditions: rat plasma at 37° C.
Method: Rat plasma was obtained by centrifugation of rat blood (13000 rpm, 5 min, 4° C.). […] Proteolytic degradation was quenched by adding 70 μL of acetonitrile/ethanol (1:1), 0.5% nicotinamide solution and vortexing. […] Data were analyzed using GraphPad Prism 7's one phase decay equation.

Sprague-Dawley rats [2] = assay: Tail-flick test (acute pain); format: in vivo; conditions: rat
Method: (§1) Experiments were performed with adult male Sprague-Dawley rats, weighing 225-300 g (Charles River laboratories, St-Constant, Canada). Rats were housed two per cage on Aspen shavings in a quiet room and kept on a 12 h light/dark cycle and allowed ad libitum access to food and water. The experimental procedures in this study were approved by the Animal Care Committee of Université de Sherbrooke (animal care protocol 035-13) and were in accordance with policies and directives of the Canadian Council on Animal Care.
Acute pain was assessed using the tail-flick test (Tail-Flick Analgesia meter V2.00, Colombus Instruments, Columbus, Ohio, USA). Tail-flick test measures sensitivity to a high-intensity light beam focused on the rat tail. The tail-flick apparatus was set at a light intensity of 6 and a cutoff of 10 sec. The latency, in seconds, to flick the tail out of the path of the light beam corresponds to the measure of pain sensitivity or analgesia.
Before testing, animals were individually acclimatized to manipulations and behavioral apparatus 5 min/day for three consecutive days. On the test day, latencies baseline measures were taken before drug injection to provide a mean baseline. […] The effects of compounds or saline on thermal nociception were assessed every 10 min for up to 60 min following i.t. administration.
Tail-flick latencies were converted into the percent maximal possible effect (% MPE) at the time of maxima peak of analgesia. % MPE were calculated according to the following formula: % MPE=[(Test latency)−(Saline latency)]/[(Cutoff)−(Saline latency)]×100. Data are expressed as mean±SEM of 3-8 animals for each different compound.
(§2) Data are expressed as mean±standard errors of the mean (SEM). All graphs and statistical analysis were performed using GraphPad Prism™ 7 (GraphPad software, La Jolla, Calif., USA). […] A difference in response was considered significant with p-values *p<0.05, **p<0.01, and ***p<0.001. […] Then, ED values were determined using the dose-response-stimulation log(agonist) vs response (three parameters).

Sprague-Dawley rats [3] = assay: Formalin test (tonic pain); format: in vivo; conditions: rat, i.t., 30 μg/kg
Method: as §1
5 min after intrathecal injection of compounds at 30 μg/kg, the rats received 50 μl of diluted 2% formaldehyde (i.e. 5% formalin; Bioshop, Burlington, Ontario) into the plantar surface of the right hind paw. […] Nociceptive behaviors were assessed using a weighted score as described previously. […] The weighted average pain intensity score ranging from 0 to 3 was then calculated by multiplying the time spent in each category by the category weight, summing these products, and dividing by the total time in a given time interval. The pain score was thus calculated from the following formula (1T1+2T2+3T3)/180 where T1, T2, and T3 are the durations (in seconds) spent in behavioral categories 1, 2, or 3, respectively, during each 180-sec block. […]
Data are expressed as mean±standard errors of the mean (SEM). […]

Sprague-Dawley rats [4] = assay: Body temperature (hypothermia); format: in vivo; conditions: rat; text says i.v., figure legend and method i.t.
Method: Body temperature was measured using a thermistor probe inserted into the rectum of adult Sprague-Dawley rats. Prior to testing, animals were individually acclimatized to manipulations and thermistor probe 5 min/day for three consecutive days. On the test day, temperature was measured before (baseline) and each 10 min for up to 60 min following intrathecal drug administration of compounds. […] Changes in body temperature (Δ body temp) were determined from baseline for each time and each animal. Data represent the mean±SEM of 3-16 rats for each condition.
as §2

rats = assay: Blood pressure (hypotension); format: in vivo, rat; conditions: 0.01 mg/kg
Method: Mean, systolic and diastolic arterial blood pressure and a heart rate were measured through a catheter (PE 50 filled with heparinized saline) inserted in the right carotid artery and connected to a Micro-Med™ transducer (model TDX-300, USA) linked to a blood pressure Micro-Med™ analyzer (model BPA-100c). Another catheter (PE 10 filled with heparinized saline) was inserted in the left jugular vein for injection of test compounds at 0.01 mg/kg (volume 1 mL/kg, 5-10 s) or 0.9% saline. Blood pressure was recorded each second for up to 900 seconds following intravenous injection.

`CCC(C)[C@H](NC(=O)[C@@H]1Cc2ccc(O)c(c2)CC=CCNCCC[C@H](N)C(=O)N[C@@H](CCCCN)C(=O)N2CCC[C@H]2C(=O)N1)C(=O)N[C@@H](CC(C)C)C(=O)O` (some centres unmarked) [Compound 7, c[Orn(All)KPY(All)]IL] gave an inhibition at 1 µM (rNTS2 receptor) of 66%, an EC50 (hNTS1 (Gαq pathway)) of 3 ± 0.05 nM and an EC50 [1] of 3 ± 0.05 nM. The half-life at […] (Plasma stability assay) was 30 min, the “ED50, tail-flick latency (from AUC)” value (Sprague-Dawley rats [2]; i.t. injection) was 4.63 µg/kg and the “Maximal possible effect (MPE)” value (Sprague-Dawley rats [2]; i.t., 30 μg/kg, 10 min post-injection) was 50%. For the same molecule, the “Dose at which the analgesic effect reached a plateau” value (Sprague-Dawley rats [2]; i.t., tail-flick) was “around 10 μg/kg”, the “Tail-flick latency versus saline/baseline” value (Sprague-Dawley rats [2]; intrathecal, 30 μg/kg) was “sustainably increased” and the “Pain score during the inflammatory phase (AUC)” value (Sprague-Dawley rats [3]) was “significantly reduced”. The “ED50, hypothermia (from AUC)” value (Sprague-Dawley rats [4]) was 1.96 μ/kg, the “Hypotension (I.V.)” value (rats) was “Triphasique” and the “Arterial blood pressure response” value (rats; rat, i.v.) was “triphasic”. For the same molecule, the “Blood pressure drop, first phase” value (rats; rat, i.v.) was “about −25 mmHg” and the “Blood pressure in phase 3” value (rats; rat, i.v.) was “slowly returned towards baseline”.

Reference: patent publication US11591366B2, “Macrocyclic compounds and methods of preventing or treating pain” (SOCPRA SCIENCES SANTÉ ET HUMAINES S.E.C., priority 2017, dated 2023)
